Common to all, as to assay type: in vivo
In data set [1] the test system is Diamondback moth (Plutella xylostella (Linnaeus)). The data set is described as follows: Test against diamondback moth, leaf disc dip. Particulars: after 72 hours; for LC50: Plutella xylostella, foliar, read-out: Lethal medium concentration LC50 against diamondback moth; for Activity against diamondback moth (in words): second-instar larvae. The protocol: (§1) The test compound was dissolved in an appropriate solvent such as N,N-dimethylformamide, and then diluted with 0.2% aqueous solution of Tween 80 to the desired concentration, Those without the test compounds were set as blank controls, the treatments were replicated 3 times. The cabbage leaves were perforated to get 18 mm diameter leaf discs by a hole puncher, 5 leaf discs were dipped in the test solution for 10 seconds and then put into a Petri dish (diameter 90 mm) padded with moisturizing filter paper, after air-drying, the leaf discs were infested with no less than ten second-instar larvae of test insects which were starved for 4 hours, and then the dish was covered and placed in a chamber for culture. After 72 hours, the number of dead insects was investigated, the mortality was calculated, and the regression equation, correlation coefficient (r) and the median lethal concentration (LC50) were obtained using Probit analysis method.

Data set [2] concerns Armyworm (Mythimna separata (Walker)). As to the kind of experiment: Test against armyworm, Potter tower method. Particulars: for mortality at 12.5 µg/mL / mortality at 50 µg/mL / mortality at 500 µg/mL: Mythimna separata, read-out: Activity (mortality) level against armyworm; for Activity against armyworm, further screening (in words): compared with chlorantraniliprole (D1). The method, boiled down:
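Third-instar larvae, ten per dish on corn leaf fragments, were sprayed in a Potter tower with 1 mL of compound in DMF diluted in 0.2% Tween 80, in triplicate. Mortality was scored after 72 h and reported as mean mortality against a solvent blank.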

A further data set concerns Aphis fabae. As to the kind of experiment: Test against aphid, leaf dip method (Aphis fabae). The settings on record: foliar; for mortality at 12.5 µg/mL / mortality at 50 µg/mL / mortality at 200 µg/mL / mortality at 500 µg/mL: read-out: Activity (mortality) level against Aphis fabae; for LC50: read-out: LC50 against Aphis fabae. The gist of the method:
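Horsebean seedlings carrying at least twenty 3-day-old Aphis fabae dipped 5 seconds in compound solutions (DMF, diluted in 0.2% aqueous Tween 80), three replicates with solvent blank. Live and dead insects counted after 24 hours.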

Data set [3] has as its system Spodoptera litura (Fabricius). The data set is described as follows: Test against Spodoptera litura, leaf disc dip. Particulars: after 72 hours; for Median lethal concentration LC50 against Spodoptera litura, compared with D1: same conditions; for Activity against Spodoptera litura (in words): second-instar larvae. The protocol: as §1
The mark [4] stands for this setting: 12.5 mg/L, third-instar larvae, after 72 hours.
Where [5] appears, read: 50 mg/L, third-instar larvae, after 72 hours.
Setting [6] is: 500 mg/L, third-instar larvae, after 72 hours.

Read-outs that look alike come from different tables or passages of the source. Some results are limits rather than exact numbers.

Take `CNC(=O)c1cc(Cl)cc(Cl)c1N(C)C(=O)c1cc(Br)nn1-c1ncccc1Cl` [Compound 1, N-[2,4-dichloro-6-[(methylamino)carbonyl]phenyl]-N-methyl-1-(3-chloro-2-pyridinyl)-3-bromo-1H-pyrazole-5-carboxamide]: the LC50 (in data set [1]; in the data set with Aphis fabae (further test)) was less than 1 µg/mL each time. Moreover, the “Activity against diamondback moth (in words)” value in data set [1] is “high activity at very low concentration”. Also, in data set [2] (1.25 mg/L), the Activity against armyworm was 75%. Also, the mortality (in general, the percentage killed) at 12.5 µg/mL in data set [2] (setting [4]) was in the range of 90 to 100%; in the data set on Aphis fabae (12.5 mg/L, after 24 hours), 90 to 100%. Further, the mortality at 50 µg/mL in data set [2] (setting [5]) lay in the range of 90 to 100%; in the data set on Aphis fabae (50 mg/L, after 24 hours), 90 to 100%. For the same molecule, the mortality at 500 µg/mL in data set [2] (setting [6]) was in the range of 90 to 100%; with Aphis fabae (500 mg/L, after 24 hours) it was 90 to 100%. The “Activity against armyworm, further screening (in words)” value (“Activity against armyworm … (in words)” below) in data set [2] was “excellent activity”. Also, the mortality at 200 µg/mL with Aphis fabae (200 mg/L, after 24 hours) is 90 to 100%. In addition, in data set [3], the “Median lethal concentration LC50 against Spodoptera litura, compared with D1” value was “lower than that of chlorantraniliprole (D1)”. Moreover, the “Activity against Spodoptera litura (in words)” value in data set [3] is given as “high activity at very low concentration”.
For the molecule `CCNC(=O)c1cc(Cl)cc(Cl)c1N(C)C(=O)c1cc(Br)nn1-c1ncccc1Cl` [Compound 2, N-[2,4-dichloro-6-[(ethylamino)carbonyl]phenyl]-N-methyl-1-(3-chloro-2-pyridinyl)-3-bromo-1H-pyrazole-5-carboxamide], the LC50 (in data set [1]; in the data set with Aphis fabae (further test)) was less than 1 µg/mL each time. In addition, the “Activity against diamondback moth (in words)” value in data set [1] is “high activity at very low concentration”. Further, the mortality at 12.5 µg/mL in data set [2] (setting [4]) lay in the range of 90 to 100%; in the data set on Aphis fabae (12.5 mg/L, after 24 hours) it was 90 to 100%. Further, the mortality at 50 µg/mL in data set [2] (setting [5]) lay within 90 to 100%; in the data set with Aphis fabae (50 mg/L, after 24 hours), 90 to 100%. Further, the mortality at 500 µg/mL in data set [2] (setting [6]) lay in the range of 90 to 100%; with Aphis fabae (500 mg/L, after 24 hours) it was 90 to 100%. Further, the “Activity against armyworm … (in words)” value in data set [2] was “excellent activity”. Besides, the mortality at 200 µg/mL in the data set with Aphis fabae (200 mg/L, after 24 hours) was in the range of 90 to 100%. In addition, the “Median lethal concentration LC50 against Spodoptera litura, compared with D1” value in data set [3] was “lower than that of chlorantraniliprole (D1)”. Also, the “Activity against Spodoptera litura (in words)” value in data set [3] is reported as “high activity at very low concentration”.
`CCN(C(=O)c1cc(Br)nn1-c1ncccc1Cl)c1c(Cl)cc(Cl)cc1C(=O)NC` [Compound 9, N-[2,4-dichloro-6-[(methylamino)carbonyl]phenyl]-N-ethyl-1-(3-chloro-2-pyridinyl)-3-bromo-1H-pyrazole-5-carboxamide]: in data set [1], the “Activity against diamondback moth (in words)” value was “high activity at very low concentration”. For the same molecule, the mortality at 50 µg/mL in data set [2] (setting [5]) fell in the range of 90 to 100%; in the data set on Aphis fabae (50 mg/L, after 24 hours), 90 to 100%. The mortality at 500 µg/mL in data set [2] (setting [6]) was in the range of 90 to 100%; in the data set on Aphis fabae (500 mg/L, after 24 hours) it was 90 to 100%. Also, the “Activity against armyworm … (in words)” value in data set [2] is reported as “excellent activity”. In the data set on Aphis fabae (12.5 mg/L, after 24 hours), the mortality at 12.5 µg/mL lay in the range of 90 to 100%. In addition, in the data set on Aphis fabae (200 mg/L, after 24 hours), the mortality at 200 µg/mL lay within 90 to 100%. The “Activity against Spodoptera litura (in words)” value in data set [3] is given as “high activity at very low concentration”.
Regarding `CCNC(=O)c1cc(Cl)cc(Cl)c1N(CC)C(=O)c1cc(Br)nn1-c1ncccc1Cl` [Compound 10, N-[2,4-dichloro-6-[(ethylamino)carbonyl]phenyl]-N-ethyl-1-(3-chloro-2-pyridinyl)-3-bromo-1H-pyrazole-5-carboxamide], the “Activity against diamondback moth (in words)” value in data set [1] is “high activity at very low concentration”. Also, the mortality at 12.5 µg/mL in data set [2] (setting [4]) was 90 to 100%; in the data set with Aphis fabae (12.5 mg/L, after 24 hours), 90 to 100%. In addition, the mortality at 50 µg/mL in data set [2] (setting [5]) lay within 90 to 100%; in the data set on Aphis fabae (50 mg/L, after 24 hours), 90 to 100%. In addition, the mortality at 500 µg/mL is 90 to 100% in data set [2] (setting [6]) and 90 to 100% in the data set with Aphis fabae (500 mg/L, after 24 hours). In addition, the “Activity against armyworm … (in words)” value in data set [2] was “excellent activity”. For the same molecule, the mortality at 200 µg/mL with Aphis fabae (200 mg/L, after 24 hours) was 90 to 100%. The LC50 in the data set with Aphis fabae (further test) was less than 1 µg/mL. The “Median lethal concentration LC50 against Spodoptera litura, compared with D1” value in data set [3] is recorded as “lower than that of chlorantraniliprole (D1)”. The “Activity against Spodoptera litura (in words)” value in data set [3] was “high activity at very low concentration”.
Turning to `CN(C)C(=O)c1cc(Cl)cc(Cl)c1N(C)C(=O)c1cc(Br)nn1-c1ncccc1Cl` [Compound 11, N-[2,4-dichloro-6-[(dimethylamino)carbonyl]phenyl]-N-methyl-1-(3-chloro-2-pyridinyl)-3-bromo-1H-pyrazole-5-carboxamide], the LC50 (in data set [1]; with Aphis fabae (further test)) was less than 1 µg/mL each time. The “Activity against diamondback moth (in words)” value in data set [1] is “high activity at very low concentration”. Besides, the mortality at 12.5 µg/mL in data set [2] (setting [4]) fell in the range of 90 to 100%; in the data set with Aphis fabae (12.5 mg/L, after 24 hours) it was 90 to 100%. Also, the mortality at 50 µg/mL in data set [2] (setting [5]) lay in the range of 90 to 100%; in the data set with Aphis fabae (50 mg/L, after 24 hours) it was 90 to 100%. For the same molecule, the mortality at 500 µg/mL was in the range of 90 to 100% in data set [2] (setting [6]) and 90 to 100% with Aphis fabae (500 mg/L, after 24 hours). Also, the “Activity against armyworm … (in words)” value in data set [2] was “excellent activity”. Besides, the mortality at 200 µg/mL in the data set on Aphis fabae (200 mg/L, after 24 hours) was 90 to 100%. Besides, the “Activity against Spodoptera litura (in words)” value in data set [3] was “high activity at very low concentration”.
As for `CCCN(C)C(=O)c1cc(Cl)cc(C)c1N(C)C(=O)c1cc(Br)nn1-c1ncccc1Cl` [Compound 46, N-[2-methyl-4-chloro-6-[(methyl(propyl)amino)carbonyl]phenyl]-N-methyl-1-(3-chloro-2-pyridinyl)-3-bromo-1H-pyrazole-5-carboxamide], the mortality at 50 µg/mL in data set [2] (setting [5]) fell in the range of 90 to 100%. Also, the mortality at 500 µg/mL in data set [2] (setting [6]) lay in the range of 90 to 100%; with Aphis fabae (500 mg/L, after 24 hours), 90 to 100%. In addition, the mortality at 200 µg/mL in the data set with Aphis fabae (200 mg/L, after 24 hours) fell in the range of 90 to 100%.
As for `Cc1cc(Cl)cc(C(=S)N(C)C)c1N(C)C(=O)c1cc(Br)nn1-c1ncccc1Cl` [Compound 47, N-[2-methyl-4-chloro-6-[(dimethylamino)thioxomethyl]phenyl]-N-methyl-1-(3-chloro-2-pyridinyl)-3-bromo-1H-pyrazole-5-carboxamide], the mortality at 50 µg/mL in data set [2] (setting [5]) was 90 to 100%; in the data set with Aphis fabae (50 mg/L, after 24 hours), 90 to 100%. Further, the mortality at 500 µg/mL fell in the range of 90 to 100% in data set [2] (setting [6]) and 90 to 100% with Aphis fabae (500 mg/L, after 24 hours). Further, the mortality at 12.5 µg/mL in the data set with Aphis fabae (12.5 mg/L, after 24 hours) fell in the range of 90 to 100%. In the data set with Aphis fabae (200 mg/L, after 24 hours), the mortality at 200 µg/mL lay within 90 to 100%.
Regarding `CCN(CC)C(=O)c1cc(Br)cc(C)c1N(C)C(=O)c1cc(Br)nn1-c1ncccc1Cl` [Compound 48, N-[2-methyl-4-bromo-6-[(diethylamino)carbonyl]phenyl]-N-methyl-1-(3-chloro-2-pyridinyl)-3-bromo-1H-pyrazole-5-carboxamide], the mortality at 50 µg/mL in data set [2] (setting [5]) lay in the range of 90 to 100%. Further, the mortality at 500 µg/mL is 90 to 100% in data set [2] (setting [6]) and 90 to 100% with Aphis fabae (500 mg/L, after 24 hours).
`CCN(CC)C(=O)c1cc(Br)cc(C)c1N(CC)C(=O)c1cc(Br)nn1-c1ncccc1Cl` [Compound 49, N-[2-methyl-4-bromo-6-[(diethylamino)carbonyl]phenyl]-N-ethyl-1-(3-chloro-2-pyridinyl)-3-bromo-1H-pyrazole-5-carboxamide]: the mortality at 50 µg/mL in data set [2] (setting [5]) fell in the range of 90 to 100%. Moreover, the mortality at 500 µg/mL was in the range of 90 to 100% in data set [2] (setting [6]) and 90 to 100% in the data set with Aphis fabae (500 mg/L, after 24 hours). Moreover, the mortality at 200 µg/mL with Aphis fabae (200 mg/L, after 24 hours) lay in the range of 90 to 100%.
Regarding `CNC(=O)c1cc(C#N)cc(C)c1NC(=O)c1cc(Br)nn1-c1ncccc1Cl` [Compound D2, cyantraniliprole, reference compound], in data set [2] (72 h), the mortality at 12.5 µg/mL was 90 to 100%, the mortality at 50 µg/mL lay within 90 to 100% and the mortality at 500 µg/mL fell in the range of 90 to 100%. For the same molecule, in the data set with Aphis fabae (24 h), the mortality at 12.5 µg/mL is 90 to 100%, the mortality at 50 µg/mL is 90 to 100%, the mortality at 200 µg/mL was in the range of 90 to 100% and the mortality at 500 µg/mL lay in the range of 90 to 100%. In addition, the LC50 with Aphis fabae is greater than 1 µg/mL.
Regarding `CC(NC(=O)c1cc(Cl)cc(Br)c1NC(=O)c1cc(Br)nn1-c1ncccc1Cl)C1CC1` (stereo not drawn) [Compound D3, cyclaniliprole, reference compound], in data set [2] (72 h), the mortality at 12.5 µg/mL was in the range of 70 to 90%, the mortality at 50 µg/mL is 90 to 100% and the mortality at 500 µg/mL is 90 to 100%. Further, in the data set with Aphis fabae (24 h), the mortality at 12.5 µg/mL lay in the range of 90 to 100%, the mortality at 50 µg/mL was 90 to 100%, the mortality at 200 µg/mL was 90 to 100% and the mortality at 500 µg/mL fell in the range of 90 to 100%. For the same molecule, in the data set with Aphis fabae, the LC50 was greater than 1 µg/mL.

These data come from patent US20220132846A1, “1-PYRIDYL-PYRAZOLYL AMIDE COMPOUNDS AND PREPARATION AND USES THEREOF” (HUNAN RESEARCH INSTITUTE OF CHEMICAL INDUSTRY CO., LTD., priority 2019, published 2022).
